Results from PMC8016166, “Identification of a Potent and Selective 5-HT1A Receptor Agonist with In Vitro and In Vivo Antinociceptive Activity” (ACS Chemical Neuroscience, 2020).

Columns and labels:
5-HT2CR = biological target: T1, 5-HT2CR (Rattus norvegicus, UniProt P08909); experiment: Radioligand binding at 5-HT2C on rat frontal cortex membranes; conditions: for selectivity 5-HT2/5-HT1A: Antilog [pKi (5-HT1AR) – pKi (5-HT2CR)]; for Ki: rat frontal cortex membranes, [3H]mesulergine, read-out: 5-HT2C pKi ± SEM (converted)
T1 construct: from tissue; host or cells: frontal cortex of male Sprague-Dawley rats
T1 sequence (P08909 33-460): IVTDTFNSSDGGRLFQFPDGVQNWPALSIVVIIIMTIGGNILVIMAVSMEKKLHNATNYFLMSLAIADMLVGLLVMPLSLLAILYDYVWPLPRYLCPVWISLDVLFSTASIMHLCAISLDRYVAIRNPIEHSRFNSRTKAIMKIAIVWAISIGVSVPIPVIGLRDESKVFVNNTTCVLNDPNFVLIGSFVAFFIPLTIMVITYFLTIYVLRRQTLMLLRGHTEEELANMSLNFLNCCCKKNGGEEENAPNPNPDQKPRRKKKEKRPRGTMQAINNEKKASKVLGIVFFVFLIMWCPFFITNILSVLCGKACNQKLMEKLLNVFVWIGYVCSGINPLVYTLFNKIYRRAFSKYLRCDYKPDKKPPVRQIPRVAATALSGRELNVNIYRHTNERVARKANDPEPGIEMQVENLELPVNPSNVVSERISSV
Protocol: Male Sprague–Dawley rats were decapitated and their brains removed and placed on ice. The hippocampi (for the functional 5-HT1A receptor assay) or frontal cortexes (for the competitive 5-HT2A and 5-HT2C receptor assays) were dissected and homogenized with a glass homogenizer in 30 vol. ice-cold TED buffer (50 mMTris-HCl, 1 mM EDTA, 1 mM dithiotheritol, pH 7.4). Next, the homogenate was centrifuged at 21 000g for 30 min at 4 °C. The pellet was suspended in 30 vol TED buffer (pH 7.4) and incubated in a water bath for 10 min at 37 °C to remove endogenous ligands. The suspension was centrifuged again at 21 000g for 30 min at 4 °C. The pellet was resuspended in 30 vol TED buffer (pH 7.4) and the centrifugation step was repeated. The final pellet was suspended in 10 vol 50 mM Tris-HCl (pH 7.4) and stored at −80 °C until use.[47]
The 5-HT2A assay was performed according to a previously described protocol with some modifications.[48] […] Nonspecific binding was determined in the presence of 10 μM mianserin. For the 5-HT2C assay, the frontal cortex homogenates (250 μg protein/mL) were incubated in triplicate with 1 nM [^3H]mesulergine for 60 min at 36 °C in a 50 mM Tris-HCl (pH 7.4) buffer containing 0.1% ascorbate, 10 mM MgCl2, 10 μM pargyline, 100 nM spiperone, and increasing concentrations (10^–10–10^–5 M) of the compound tested. After incubation, the reaction mixture was deposited onto UniFilter-96 GF/B plates, with the aid of a FilterMate-96 Harvester. The filter plates were presoaked with 0.4% PEI for 1 h. Next, each filter well was washed with 1.75 mL of 50 mM Tris-HCl (pH 7.4) and left to dry on a heating block set to 50 °C for 2 h. Then, 45 μL of Microscint-20 scintillation fluid was added to each filter well and left to equilibrate overnight. The filter-bound radioactivity was counted in a MicroBeta^2 Microplate Counter. Curves were fitted with a one-site sigmoidal dose–response equation and pKi for each compound was calculated with the Cheng-Pursoff equation. Results were analyzed with one-way ANOVA followed by the Bonferroni’s posthoc test. The results are expressed as means ± SEM of three independent experiments.

human 5-HT6 = biological target: T2, human 5-HT6 (Homo sapiens, UniProt P50406); experiment: Radioligand binding at 5-HT6 in transfected HEK293 cells; conditions: for selectivity 5-HT6/5-HT1A: Antilog [pKi (5-HT1AR) – pKi (5-HT6R)]; for Ki: transfected HEK293 cells, [3H]-LSD, read-out: 5-HT6 pKi ± SEM (converted)
T2 construct: expressed in transfected cells
T2 sequence (P50406 whole entry): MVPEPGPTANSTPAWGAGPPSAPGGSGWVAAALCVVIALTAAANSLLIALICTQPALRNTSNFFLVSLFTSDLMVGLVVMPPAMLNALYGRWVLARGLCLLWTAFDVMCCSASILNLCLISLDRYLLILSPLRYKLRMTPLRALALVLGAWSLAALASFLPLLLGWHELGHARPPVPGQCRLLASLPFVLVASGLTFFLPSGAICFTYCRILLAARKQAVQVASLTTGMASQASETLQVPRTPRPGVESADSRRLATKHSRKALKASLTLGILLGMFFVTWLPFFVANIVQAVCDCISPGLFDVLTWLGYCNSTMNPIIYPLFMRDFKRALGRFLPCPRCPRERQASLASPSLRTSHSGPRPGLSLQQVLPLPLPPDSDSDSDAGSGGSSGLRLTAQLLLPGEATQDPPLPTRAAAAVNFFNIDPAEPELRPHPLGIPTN

Hep-G2 cells = experiment: Hep-G2 cell viability (MTT assay); type: cell-based; conditions: 72 h; for hepatic cell viability vs untreated control cells: 50 μM; for hepatic cell viability (toxicity): concentrations ≤10 μM
Protocol: HEK293 cells with stable expression of human 5-HT1A, 5-HT6, and 5-HT7b (prepared with the use of Lipofectamine 2000) were grown in Dulbecco’s Modified Eagle Medium (DMEM) containing 10% dialyzed fetal bovine serum (FBS) and 500 μg/mL G418 sulfate. Liver hepatocellular carcinoma Hep-G2 cells were cultured in DMEM enriched by 10% FBS, 2 mM L-glutamine, 100 IU/mL penicillin, and 50 μg/mL streptomycin (all from Sigma-Aldrich Corporation, a division of Merck KGaA, Darmstadt, Germany). Cell lines were maintained at 37 °C in a humidified atmosphere with 5% CO2. For membrane preparation, the cells were subcultured in 150 cm^2 flasks, grown to 90% confluence, washed twice with prewarmed to 37 °C phosphate buffered saline (PBS), and pelleted by centrifugation (200g) in PBS containing 0.1 mM EDTA and 1 mM dithiothreitol. Prior to membrane preparation, pellets were stored at −80 °C.
Liver hepatocellular carcinoma Hep-G2 cells were seeded in 96-well plates (1 × 10^4 cells/well) and maintained under continuous stimulation with increasing concentrations (nM−μM range) of the tested compounds. 200 mM ethanol and 5% Triton X-100 (Sigma-Aldrich Corporation) served as controls. The viability of cells was assessed by MTT assay as previously described.[66],[67] The absorbance was detected by a Victor3 plate reader (PerkinElmer Inc., Waltham, MA, USA) and represented by box and whiskers plot, as a measure of cell viability. Differences between values from treated and untreated cells were evaluated by two-ANOVA followed by Dunnett’s multiple comparison test (p < 0.05).

α1 = test system: α1; design: method as in PMID 30043643; conditions: previous work; cited from earlier work

Compound | selectivity 5-HT2/5-HT1A (5-HT2CR) | Ki (5-HT2CR) | selectivity 5-HT6/5-HT1A (human 5-HT6) | Ki (human 5-HT6) | hepatic cell viability vs untreated control cells (Hep-G2 cells) | hepatic cell viability (Hep-G2 cells; 10 and 5 μM) | hepatic cell viability (toxicity) (Hep-G2 cells) | selectivity 5-HT1A/α1 (α1)
Cn1cncc1-c1ccccc1OCCNC[C@H]1COC(c2ccccc2)(c2ccccc2)O1 [(S)-2, N-((2,2-Diphenyl-1,3-dioxolan-4-yl)methyl)-2-(2-(1-methyl-1H-imidazol-5-yl)phenoxy)ethan-1-ammonium hydrogenoxalate] | 78 | 316 nM | 1349 | 5500 nM | negatively impacted cell viability | decreased cell viability | – | –
c1ccc(C2(c3ccccc3)OC[C@@H](CNCCOc3ccccc3-c3ccncc3)O2)cc1 [(R)-1, N-[(2,2-Diphenyl-1,3-dioxolan-4-yl)methyl]-2-[2-(pyridin-4-yl)phenoxy]ethan-1-ammonium hydrogenoxalate] | 204 | 912 nM | 955 | 4270 nM | negatively impacted cell viability | – | very low toxicity | –
c1ccc(C2(c3ccccc3)OC[C@H](CNCCOc3ccccc3-c3ccncc3)O2)cc1 [(S)-1, N-[(2,2-Diphenyl-1,3-dioxolan-4-yl)methyl]-2-[2-(pyridin-4-yl)phenoxy]ethan-1-ammonium hydrogenoxalate] | 102 | 955 nM | 347 | 3240 nM | no effect | – | very low toxicity | –
Cn1cncc1-c1ccccc1OCCNCC1COC(c2ccccc2)(c2ccccc2)O1 (racemic) [rac-2, N-((2,2-diphenyl-1,3-dioxolan-4-yl)methyl)-2-(2-(1-methyl-1H-imidazol-5-yl)phenoxy)ethan-1-ammonium hydrogenoxalate] | 45 | 331 nM | 676 | 5010 nM | – | – | – | 132
Cn1cncc1-c1ccccc1OCCNC[C@@H]1COC(c2ccccc2)(c2ccccc2)O1 [(R)-2, N-((2,2-Diphenyl-1,3-dioxolan-4-yl)methyl)-2-(2-(1-methyl-1H-imidazol-5-yl)phenoxy)ethan-1-ammonium hydrogenoxalate] | 105 | 1260 nM | 417 | 5010 nM | negatively impacted cell viability | – | very low toxicity | –
c1ccc(C2(c3ccccc3)OCC(CNCCOc3ccccc3-c3ccncc3)O2)cc1 (racemic) [rac-1, N-[(2,2-diphenyl-1,3-dioxolan-4-yl)methyl]-2-[2-(pyridin-4-yl)phenoxy]ethan-1-ammonium hydrogenoxalate] | 40 | 363 nM | 832 | 7590 nM | – | – | – | 135
